Earlier results in patent US20140328789A1, “pH-RESPONSIVE CELL SCAFFOLD AND METHOD OF USING SAME” (Research Foundation of the City University of New York, priority 2013, published 2014).

Conditions: for pKa: cross-linking agent; for pKa1 Monomer: first pKa; for pKa2 Monomer: second pKa; for pKa3 Monomer: third pKa

C/C=C/C(=O)OC(=O)/C=C/C [Crotonic anhydride]
pKa: pKa = 4.61

N[C@@H](CCC(=O)O)C(=O)O [glutamic acid]
pKa1 Monomer: 2.2 | pKa2 Monomer: 4.25 | pKa3 Monomer: pKa3 = 9.67

C=C(C)C(=O)OCCN(CC)CC [2-diethylaminoethyl methacrylate]
pKa Monomer: pKa = 7.3

C=C(C)C(=O)OCCOP(=O)([O-])OCC[N+](C)(C)C [2-methacryloyloxyethyl phosphorylcholine]
pKa1 Monomer: pKa1 = 1.9

NCCCC[C@H](N)C(=O)O [lysine]
pKa1 Monomer: 2.2 | pKa2 Monomer: 9.0 | pKa3 Monomer: pKa3 = 10.5

C=C(C)C(=O)OCCN(C)C [N,N-Dimethylaminoethyl Methacrylate]
pKa Monomer: pKa = 7.3-7.5

C=C(CC(=O)O)C(=O)O [itaconic acid]
pKa Monomer: pKa = 4.5

C=CC(=O)NC(C)C [N-isopropylacrylamide (NIPAM), N-isopropylacrylamide]
pKa Monomer: pKa ≈ 6

albumin
pKa Monomer: pKa = 7.4

C=C(C)C(=O)OCCN [aminoethyl methacrylate (AEMA), aminoethyl methacrylate]
pKa Monomer: pKa = 8.8

C=C(C)C(=O)OC1CC(C)(C)N([O])C(C)(C)C1 [TEMPO methacrylate]
pKa Monomer: pKa = 5.5

C=C(C)C(=O)OC(=O)C(=C)C [Methacrylic anhydride]
pKa: pKa = 4.65
